Data as given in PubChem BioAssay AID328 (DTP/NCI, 2004).
Where “and” joins values, the source holds several entries; their conditions need not be identical. Identical values can stand only once. Toxic doses and inconclusive results are not listed.

Tested on: BDF1 mice, P388 leukemia ip, median survival T/C
Assay: NCI In Vivo Anticancer Drug Screen. Data for tumor model P388 Leukemia (intraperitoneal) in B6D2F1 (BDF1) mice
Conditions: endpoint: median survival time, higher = longer survival
Method in brief: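 Each value expresses how treatment altered survival: treated-mouse outcome over vehicle-mouse outcome, both groups bearing the transplanted tumour.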

[1] = dose: 200.0 mg/kg/injection, schedule: Q01DX009 (ip), vehicle: saline with Tween-80
[2] = dose: 400.0 mg/kg/injection, schedule: Q01DX009 (ip), vehicle: saline with Tween-80
[3] = dose: 12.5 mg/kg/injection, schedule: Q01DX009 (ip), vehicle: saline with Tween-80
[4] = dose: 50.0 mg/kg/injection, schedule: Q01DX009 (ip), vehicle: saline with Tween-80
[5] = dose: 50.0 mg/kg/injection, schedule: Q01DX009 (ip), vehicle: saline
[6] = dose: 200.0 mg/kg/injection, schedule: Q01DX009 (ip), vehicle: saline
[7] = dose: 25.0 mg/kg/injection, schedule: Q01DX009 (ip), vehicle: saline with Tween-80
[8] = dose: 100.0 mg/kg/injection, schedule: Q01DX009 (ip), vehicle: saline with Tween-80

`COC(=O)C(Cc1ccc(N(CCCl)CCCl)cc1)N=NNc1nc[nH]c1C(N)=O` (centres undefined) was tested, and the T/C (dose: 14.0 mg/kg/injection, schedule: Q04DX003 (ip), vehicle: saline) was 154 % of control, the T/C (dose: 33.0 mg/kg/injection, schedule: Q04DX003 (ip), vehicle: saline) was 195 % of control and the T/C (dose: 50.0 mg/kg/injection, schedule: Q04DX003 (ip), vehicle: saline) was 213 % of control.

For `CC1CN1P(=S)(Oc1ccccc1)N1CC1C` (centres undefined), the T/C [1] was 150 % of control, the T/C (dose: 264.0 mg/kg/injection, schedule: Q01DX009 (ip), vehicle: saline with Tween-80) was 122 % of control and the T/C (dose: 300.0 mg/kg/injection, schedule: Q01DX009 (ip), vehicle: saline with Tween-80) was 155 % of control. For the same compound, the T/C [2] was 150 % of control.

`CN=S(=O)(OCCCCCCCCCOS(=O)(=NC)c1ccc(C)cc1)c1ccc(C)cc1` (centres undefined) was tested, and the T/C [3] was 108 % of control and the T/C [4] was 117 % of control.

`Cc1nc[nH]c(=O)c1N` was tested, and the T/C [5] was 102 % of control, the T/C (dose: 100.0 mg/kg/injection, schedule: Q01DX009 (ip), vehicle: saline) was 102 % of control and the T/C [6] was 102 % of control.

For `NC(=O)CC(N)C(=O)O` (centres undefined), the T/C [6] was 100 % of control, the T/C (dose: 200.0 mg/kg/injection, schedule: Q01DX010 (ip), vehicle: other) was 110 % of control and the T/C (dose: 400.0 mg/kg/injection, schedule: Q01DX009 (ip), vehicle: saline) was 100 % of control. The T/C (dose: 400.0 mg/kg/injection, schedule: Q01DX010 (ip), vehicle: other) was 120 % of control, the T/C (dose: 400.0 mg/kg/injection, schedule: Q01DX010 (ip), vehicle: saline with Tween-80) was 86 % of control and the T/C (dose: 800.0 mg/kg/injection, schedule: Q01DX009 (ip), vehicle: saline) was 110 % of control. The T/C (dose: 800.0 mg/kg/injection, schedule: Q01DX010 (ip), vehicle: other) was 100 % of control, the T/C (dose: 1600.0 mg/kg/injection, schedule: Q01DX009 (ip), vehicle: saline) was 115 % of control and the T/C (dose: 1600.0 mg/kg/injection, schedule: Q01DX010 (ip), vehicle: other) was 115 % of control. The T/C (dose: 1600.0 mg/kg/injection, schedule: Q01DX010 (ip), vehicle: saline with Tween-80) was 150 % of control.

`CC(C)CCCC(C)C1CCC2C3C(=O)C=C4CC(O)CCC4(C)C3CCC12C` (centres undefined) was tested, and the T/C (dose: 100.0 mg/kg/injection, schedule: Q04DX003 (sc), vehicle: steriod suspending solution) was 109 % of control, the T/C (dose: 200.0 mg/kg/injection, schedule: Q04DX003 (sc), vehicle: steriod suspending solution) was 104 % of control and the T/C (dose: 400.0 mg/kg/injection, schedule: Q04DX003 (sc), vehicle: steriod suspending solution) was 109 % of control.

`O=C1CCC(=O)N1CCC(=O)N(C(=O)NC1CCCCC1)C1CCCCC1` was tested, and the T/C [3] was 100 % of control, the T/C [7] was 101 % of control and the T/C [4] was 104 % of control and 111 % of control. The T/C [8] was 101 % of control, the T/C (dose: 100.0 mg/kg/injection, schedule: Q04DX003 (ip), vehicle: saline with Tween-80) was 118 % of control and the T/C [1] was 100 % of control and 123 % of control. The T/C (dose: 200.0 mg/kg/injection, schedule: Q04DX003 (ip), vehicle: saline with Tween-80) was 118 % of control, the T/C [2] was 111 % of control and the T/C (dose: 400.0 mg/kg/injection, schedule: Q04DX003 (ip), vehicle: saline with Tween-80) was 113 % of control.

`C=C1C(=O)O[C@@H]2C[C@@H](C)[C@@H]3C=CC(=O)[C@@]3(C)[C@@H](O)[C@H]12` was tested, and the T/C (dose: 0.88 mg/kg/injection, schedule: Q01DX009 (ip), vehicle: saline) was 109 % of control, the T/C (dose: 1.3 mg/kg/injection, schedule: Q01DX009 (ip), vehicle: saline) was 113 % of control and the T/C (dose: 2.0 mg/kg/injection, schedule: Q01DX009 (ip), vehicle: saline + alcohol) was 116 % of control. The T/C (dose: 4.0 mg/kg/injection, schedule: Q01DX010 (ip), vehicle: other) was 116 % of control, the T/C (dose: 5.0 mg/kg/injection, schedule: Q01DX009 (ip), vehicle: saline + alcohol) was 116 % of control and the T/C (dose: 5.0 mg/kg/injection, schedule: Q01DX009 (ip), vehicle: saline with Tween-80) was 109 % of control. For the same compound, the T/C (dose: 5.0 mg/kg/injection, schedule: Q01DX010 (ip), vehicle: other) was 112 % of control, the T/C (dose: 6.0 mg/kg/injection, schedule: Q01DX010 (ip), vehicle: other) was 116 % of control and the T/C (dose: 8.0 mg/kg/injection, schedule: Q01DX009 (ip), vehicle: alcohol) was 163 % of control. The T/C (dose: 8.0 mg/kg/injection, schedule: Q01DX009 (ip), vehicle: saline + alcohol) was 168 % of control and the T/C (dose: 8.0 mg/kg/injection, schedule: Q01DX010 (ip), vehicle: other) was 116 % of control.

For `O=C(O)CN=Cc1ccccc1O.O=C(O)CN=Cc1ccccc1O.[Fe]`, the T/C (dose: 6.25 mg/kg/injection, schedule: Q01DX009 (ip), vehicle: saline with Tween-80) was 100 % of control, the T/C (dose: 6.25 mg/kg/injection, schedule: Q01DX009 (ip), vehicle: saline) was 106 % of control and the T/C (dose: 6.25 mg/kg/injection, schedule: Q04DX003 (ip), vehicle: saline) was 100 % of control. For the same compound, the T/C [3] was 100 % of control, the T/C (dose: 12.5 mg/kg/injection, schedule: Q01DX009 (ip), vehicle: saline) was 115 % of control and the T/C (dose: 12.5 mg/kg/injection, schedule: Q04DX003 (ip), vehicle: saline) was 100 % of control. For the same compound, the T/C [7] was 100 % of control and 110 % of control, the T/C (dose: 25.0 mg/kg/injection, schedule: Q01DX009 (ip), vehicle: saline) was 90 % of control and the T/C (dose: 25.0 mg/kg/injection, schedule: Q04DX003 (ip), vehicle: saline with Tween-80) was 100 % of control. The T/C (dose: 25.0 mg/kg/injection, schedule: Q04DX003 (ip), vehicle: saline) was 95 % of control, the T/C [4] was 100 % of control and the T/C [5] was 86 % of control. For the same compound, the T/C (dose: 50.0 mg/kg/injection, schedule: Q04DX003 (ip), vehicle: saline with Tween-80) was 86 % of control.

In the case of `CC1(C)O[C@]2(C)CC[C@@H]1[C@@H](O)[C@@H]2N1CCOCC1`, the T/C (dose: 50.0 mg/kg/injection, schedule: Q01DX005 (ip), vehicle: saline) is reported as 108 % of control, the T/C (dose: 100.0 mg/kg/injection, schedule: Q01DX005 (ip), vehicle: saline) is reported as 106 % of control and the T/C (dose: 200.0 mg/kg/injection, schedule: Q01DX005 (ip), vehicle: saline) is reported as 104 % of control.

`O=C(c1ccccc1)C(c1ccccc1)C(O)(C(F)(F)F)C(F)(F)F` (centres undefined) was tested, and the T/C (dose: 100.0 mg/kg/injection, schedule: Q01DX001 (ip), vehicle: saline with Tween-80) was 100 % of control and the T/C (dose: 200.0 mg/kg/injection, schedule: Q01DX001 (ip), vehicle: saline with Tween-80) was 95 % of control.

In the case of `C=CCN(CC=C)c1ncnc2[nH]ncc12`, the T/C [7] is reported as 100 % of control, the T/C [4] is reported as 100 % of control and the T/C [8] is reported as 109 % of control.

For `CCCCCCC#CC(=O)O`, the T/C [4] was 100 % of control, the T/C (dose: 50.0 mg/kg/injection, schedule: Q01DX009 (sc), vehicle: olive oil, sesame oil, peanut oil) was 96 % of control and the T/C [8] was 98 % of control. The T/C (dose: 100.0 mg/kg/injection, schedule: Q01DX009 (sc), vehicle: olive oil, sesame oil, peanut oil) was 96 % of control, the T/C (dose: 100.0 mg/kg/injection, schedule: Q04DX003 (sc), vehicle: olive oil, sesame oil, peanut oil) was 100 % of control and the T/C [1] was 116 % of control. For the same compound, the T/C (dose: 200.0 mg/kg/injection, schedule: Q01DX009 (sc), vehicle: olive oil, sesame oil, peanut oil) was 92 % of control and the T/C (dose: 200.0 mg/kg/injection, schedule: Q04DX003 (sc), vehicle: olive oil, sesame oil, peanut oil) was 96 % of control.

With `O=[N+]([O-])c1ccc(-c2ncc3cnccn23)cc1` the T/C (dose: 100.0 mg/kg/injection, schedule: Q04DX003 (ip), vehicle: saline) was 111 % of control, the T/C (dose: 200.0 mg/kg/injection, schedule: Q04DX003 (ip), vehicle: saline) was 97 % of control and the T/C (dose: 400.0 mg/kg/injection, schedule: Q04DX003 (ip), vehicle: saline) was 102 % of control.

For `Nc1nccc(NC(c2ccccc2)c2ccccc2)c1N`, the T/C (dose: 3.0 mg/kg/injection, schedule: Q01DX009 (ip), vehicle: DMSO) was 95 % of control, the T/C (dose: 6.0 mg/kg/injection, schedule: Q01DX009 (ip), vehicle: DMSO) was 100 % of control and the T/C (dose: 12.0 mg/kg/injection, schedule: Q01DX009 (ip), vehicle: DMSO) was 95 % of control. For the same compound, the T/C (dose: 12.5 mg/kg/injection, schedule: Q01DX009 (ip), vehicle: DMSO) was 103 % of control, the T/C (dose: 12.5 mg/kg/injection, schedule: Q04DX003 (ip), vehicle: DMSO) was 95 % of control and the T/C (dose: 25.0 mg/kg/injection, schedule: Q04DX003 (ip), vehicle: DMSO) was 100 % of control. For the same compound, the T/C (dose: 50.0 mg/kg/injection, schedule: Q04DX003 (ip), vehicle: DMSO) was 100 % of control.
